Assay results from publication PMC9705314, “Characterization of a new potent and long-lasting single chain peptide agonist of RXFP1 in cells and in vivo translational models” (Scientific Reports, 2022).
Numbering of substitutions follows the chain as printed.

What was measured:
Type in all cases: cell-based
hRXFP1 (S69P) = target: T1, hRXFP1 (S69P) (Homo sapiens, UniProt Q9HBX9, S69P); assay: cAMP production in HEK cells expressing hRXFP1 (S69P); conditions: hRXFP1 S69P mutant, n = 4 experiments in duplicate
T1 sequence (Q9HBX9 1-757 S69P): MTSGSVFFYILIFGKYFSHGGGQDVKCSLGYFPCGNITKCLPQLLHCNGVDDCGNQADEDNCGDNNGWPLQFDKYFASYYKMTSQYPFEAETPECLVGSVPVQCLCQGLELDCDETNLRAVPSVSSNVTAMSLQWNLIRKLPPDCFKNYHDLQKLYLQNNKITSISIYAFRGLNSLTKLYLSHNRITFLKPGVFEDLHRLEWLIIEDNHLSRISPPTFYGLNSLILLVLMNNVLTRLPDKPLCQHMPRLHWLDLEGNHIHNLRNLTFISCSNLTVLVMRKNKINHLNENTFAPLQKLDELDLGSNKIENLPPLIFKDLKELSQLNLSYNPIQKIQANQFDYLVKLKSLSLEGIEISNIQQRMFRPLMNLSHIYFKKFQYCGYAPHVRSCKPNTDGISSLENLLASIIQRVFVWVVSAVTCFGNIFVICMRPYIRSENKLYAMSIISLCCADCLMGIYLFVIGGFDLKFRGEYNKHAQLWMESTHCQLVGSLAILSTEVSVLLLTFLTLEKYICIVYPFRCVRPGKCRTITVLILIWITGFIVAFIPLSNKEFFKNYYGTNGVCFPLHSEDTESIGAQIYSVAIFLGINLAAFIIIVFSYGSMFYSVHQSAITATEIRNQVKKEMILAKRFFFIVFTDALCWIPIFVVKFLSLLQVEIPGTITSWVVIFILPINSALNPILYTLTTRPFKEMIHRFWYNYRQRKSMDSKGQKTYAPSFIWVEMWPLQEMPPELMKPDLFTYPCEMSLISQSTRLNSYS
Protocol: (§1) HEK cells were stably transduced with lentiviral constructs (Vectalys, MOI 20, batches rV2.1A1.5057 B, rV2.1A1.5056 B and rV2.1A1.5059 B) containing a bicistronic vectors encoding hRXFP1 (S69P) or hRXFP1 (F76V) or hRXFP1 (S69P/F76V) under the EF1 promoter followed by an internal ribosome entry site (IRES) elements to express the neomycin antibiotic resistance gene for selection with 500 μg/mL Geneticin (Invitrogen, #10131-019). Three days post transduction, HEK cells were grown in the presence of Genetecin. Positive individual clones were selected and amplified, and cAMP readout (nM) was used as described for other cell types at a cell density of 8000 cells/well.

hRXFP1 (F76V) = target: T2, hRXFP1 (F76V) (Homo sapiens, UniProt Q9HBX9, F76V); assay: cAMP production in HEK cells expressing hRXFP1 (F76V); conditions: hRXFP1 F76V mutant, n = 4 experiments in duplicate
T2 sequence (Q9HBX9 1-757 F76V): T1 sequence (Q9HBX9 1-757 S69P) with P69S, F76V
Protocol: as §1

RXFP1 = target: T3, RXFP1 (Homo sapiens, UniProt Q9HBX9); assay: cAMP production in HEK_RXFP1 cells; set-up: expressed in transfected cells; conditions: HEK_RXFP1 cells (wild type construct), n = 4 experiments in duplicate
T3 sequence (Q9HBX9 1-757): T1 sequence (Q9HBX9 1-757 S69P) with P69S

- cAMP activity (RXFP1): activity was in the same range
Substance: relaxin
- cAMP response (efficacy) (hRXFP1 (S69P)): reduced in all RXFP1 mutants compared to the wild type construct
- cAMP response (efficacy) (hRXFP1 (F76V)): reduced in all RXFP1 mutants compared to the wild type construct
